Measurements published in ChEMBL document CHEMBL4507272 (2021).

Key:
[1] = target: Serine/threonine-protein kinase 25 (Homo sapiens) (UniProt O00506); settings: Compound concentration 1000.0 nM
[2] = target: Receptor-type tyrosine-protein kinase FLT3 (Homo sapiens) (UniProt P36888); settings: Compound concentration 1000.0 nM
[3] = test system: Hepatocyte growth factor receptor (Homo sapiens), P08581 [Y1235D]; settings: Compound concentration 1000.0 nM
[4] = test system: Epidermal growth factor receptor (Homo sapiens), P00533 [UNDEFINED MUTATION]; settings: Compound concentration 1000.0 nM
Sequence of Epidermal growth factor receptor (Homo sapiens), P00533 [UNDEFINED MUTATION] (P00533 whole entry, looked up, change not shown): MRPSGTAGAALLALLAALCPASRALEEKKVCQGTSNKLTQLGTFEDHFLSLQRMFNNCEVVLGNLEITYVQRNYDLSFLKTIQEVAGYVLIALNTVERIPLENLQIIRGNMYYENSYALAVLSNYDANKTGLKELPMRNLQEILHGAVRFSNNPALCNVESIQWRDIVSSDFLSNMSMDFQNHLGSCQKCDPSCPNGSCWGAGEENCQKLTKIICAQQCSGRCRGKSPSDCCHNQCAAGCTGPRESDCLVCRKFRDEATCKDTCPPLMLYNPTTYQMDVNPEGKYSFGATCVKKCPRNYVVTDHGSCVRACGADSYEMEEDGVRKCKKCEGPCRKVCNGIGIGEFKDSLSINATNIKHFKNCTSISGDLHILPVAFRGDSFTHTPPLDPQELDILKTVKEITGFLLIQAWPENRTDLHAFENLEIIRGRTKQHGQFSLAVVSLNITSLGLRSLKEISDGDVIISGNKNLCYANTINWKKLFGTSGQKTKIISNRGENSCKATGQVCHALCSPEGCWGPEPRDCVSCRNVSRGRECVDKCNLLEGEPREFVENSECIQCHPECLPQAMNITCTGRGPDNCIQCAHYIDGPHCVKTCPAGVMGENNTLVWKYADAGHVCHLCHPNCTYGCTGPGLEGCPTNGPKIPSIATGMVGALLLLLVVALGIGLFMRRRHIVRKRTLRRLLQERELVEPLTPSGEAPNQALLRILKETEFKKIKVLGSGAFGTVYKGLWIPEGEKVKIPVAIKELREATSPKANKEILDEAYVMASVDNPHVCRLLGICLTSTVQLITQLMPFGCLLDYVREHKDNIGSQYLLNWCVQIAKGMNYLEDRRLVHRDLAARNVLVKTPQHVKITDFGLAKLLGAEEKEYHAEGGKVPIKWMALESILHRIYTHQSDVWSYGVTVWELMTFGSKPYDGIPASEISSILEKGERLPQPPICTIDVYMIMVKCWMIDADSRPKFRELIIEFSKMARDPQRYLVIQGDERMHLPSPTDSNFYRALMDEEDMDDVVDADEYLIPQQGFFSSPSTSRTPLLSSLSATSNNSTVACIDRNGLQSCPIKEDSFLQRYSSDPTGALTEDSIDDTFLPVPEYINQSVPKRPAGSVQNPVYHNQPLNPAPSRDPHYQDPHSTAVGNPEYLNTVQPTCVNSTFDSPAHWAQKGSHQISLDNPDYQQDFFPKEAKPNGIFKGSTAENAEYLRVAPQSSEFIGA

[5] = target: Serine/threonine-protein kinase Nek2 (Homo sapiens) (UniProt P51955); settings: Compound concentration 1000.0 nM
[6] = target: Calcium-dependent protein kinase 1 (Plasmodium falciparum) (UniProt P62344); settings: Compound concentration 1000.0 nM
[7] = test system: Hepatocyte growth factor receptor (Homo sapiens), P08581 [M1250T]; settings: Compound concentration 1000.0 nM
[8] = target: Ephrin type-B receptor 2 (Homo sapiens) (UniProt P29323); settings: Compound concentration 1000.0 nM
[9] = target: Death-associated protein kinase 3 (Homo sapiens) (UniProt O43293); settings: Compound concentration 1000.0 nM
[10] = target: Cyclin-dependent kinase 4 (Homo sapiens) (UniProt P11802); settings: Compound concentration 1000.0 nM
Sequence of Cyclin-dependent kinase 4 (Homo sapiens) (P11802 whole entry): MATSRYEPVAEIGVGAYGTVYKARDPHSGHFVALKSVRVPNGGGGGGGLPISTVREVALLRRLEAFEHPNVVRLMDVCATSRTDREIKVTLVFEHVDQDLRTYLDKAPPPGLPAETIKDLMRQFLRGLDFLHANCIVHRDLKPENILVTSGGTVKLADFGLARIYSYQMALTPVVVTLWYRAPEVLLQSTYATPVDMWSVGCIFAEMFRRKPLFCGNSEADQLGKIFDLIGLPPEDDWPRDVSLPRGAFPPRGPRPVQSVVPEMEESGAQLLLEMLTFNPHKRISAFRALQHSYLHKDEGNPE

[11] = target: Mitogen-activated protein kinase kinase kinase kinase 5 (Homo sapiens) (UniProt Q9Y4K4); settings: Compound concentration 1000.0 nM
[12] = target: Serine/threonine-protein kinase Nek5 (Homo sapiens) (UniProt Q6P3R8); settings: Compound concentration 1000.0 nM
[13] = target: Ephrin type-A receptor 2 (Homo sapiens) (UniProt P29317); settings: Compound concentration 1000.0 nM
[14] = target: 5-hydroxytryptamine receptor 2B (Homo sapiens) (UniProt P41595); settings: Compound concentration 10.0 uM
[15] = target: Tyrosine-protein kinase CSK (Homo sapiens) (UniProt P41240); settings: Compound concentration 1000.0 nM
[16] = target: Phosphorylase b kinase regulatory subunit alpha, liver isoform (Homo sapiens) (UniProt P46019); settings: Compound concentration 1000.0 nM
Sequence of Phosphorylase b kinase regulatory subunit alpha, liver isoform (Homo sapiens) (P46019 whole entry, canonical isoform): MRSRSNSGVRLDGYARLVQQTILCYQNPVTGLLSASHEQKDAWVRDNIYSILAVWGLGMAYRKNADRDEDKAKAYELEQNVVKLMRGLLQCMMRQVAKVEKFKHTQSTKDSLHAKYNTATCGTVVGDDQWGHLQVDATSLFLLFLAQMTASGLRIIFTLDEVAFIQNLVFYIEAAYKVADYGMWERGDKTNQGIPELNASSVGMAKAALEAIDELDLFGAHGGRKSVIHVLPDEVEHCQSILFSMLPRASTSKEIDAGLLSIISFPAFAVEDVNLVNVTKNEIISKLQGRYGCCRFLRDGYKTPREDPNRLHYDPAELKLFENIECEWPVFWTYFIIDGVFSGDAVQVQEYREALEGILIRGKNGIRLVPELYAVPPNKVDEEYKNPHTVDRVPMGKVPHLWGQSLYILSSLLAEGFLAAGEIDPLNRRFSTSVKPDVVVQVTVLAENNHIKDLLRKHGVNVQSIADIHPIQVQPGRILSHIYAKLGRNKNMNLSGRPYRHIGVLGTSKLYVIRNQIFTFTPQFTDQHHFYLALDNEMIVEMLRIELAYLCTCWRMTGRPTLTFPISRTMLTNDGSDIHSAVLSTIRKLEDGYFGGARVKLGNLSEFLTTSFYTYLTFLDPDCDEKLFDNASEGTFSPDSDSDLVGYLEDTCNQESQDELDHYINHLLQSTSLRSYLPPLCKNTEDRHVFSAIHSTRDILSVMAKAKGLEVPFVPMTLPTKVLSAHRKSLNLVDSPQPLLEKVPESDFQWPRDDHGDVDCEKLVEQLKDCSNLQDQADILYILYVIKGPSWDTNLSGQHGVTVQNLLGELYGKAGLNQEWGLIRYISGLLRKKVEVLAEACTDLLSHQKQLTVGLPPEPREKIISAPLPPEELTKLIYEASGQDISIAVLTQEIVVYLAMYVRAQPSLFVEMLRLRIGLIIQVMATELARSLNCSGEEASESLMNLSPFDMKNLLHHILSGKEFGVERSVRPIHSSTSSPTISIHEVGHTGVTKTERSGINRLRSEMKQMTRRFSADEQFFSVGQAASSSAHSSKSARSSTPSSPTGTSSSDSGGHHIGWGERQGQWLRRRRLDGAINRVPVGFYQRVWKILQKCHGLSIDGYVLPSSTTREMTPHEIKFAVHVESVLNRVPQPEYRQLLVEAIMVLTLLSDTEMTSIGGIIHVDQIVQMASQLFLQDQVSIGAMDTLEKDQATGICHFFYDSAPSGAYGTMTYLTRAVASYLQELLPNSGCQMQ

[17] = target: Histamine H2 receptor (Homo sapiens) (UniProt P25021); settings: Compound concentration 10.0 uM
[18] = test system: Mast/stem cell growth factor receptor Kit (Homo sapiens), P10721 [V559D]; settings: Compound concentration 1000.0 nM
[19] = target: Alpha-2A adrenergic receptor (Homo sapiens) (UniProt P08913); settings: Compound concentration 10.0 uM
[20] = target: Serine/threonine-protein kinase N2 (Homo sapiens) (UniProt Q16513); settings: Compound concentration 1000.0 nM
[21] = target: Tyrosine-protein kinase Lyn (Homo sapiens) (UniProt P07948); settings: Compound concentration 1000.0 nM
[22] = target: Tyrosine-protein kinase SYK (Homo sapiens) (UniProt P43405); settings: Compound concentration 1000.0 nM
[23] = target: Non-receptor tyrosine-protein kinase TYK2 (Homo sapiens) (UniProt P29597); settings: Compound concentration 1000.0 nM
[24] = target: Atypical kinase COQ8B, mitochondrial (Homo sapiens) (UniProt Q96D53); settings: Compound concentration 1000.0 nM
[25] = target: Serine/threonine-protein kinase 33 (Homo sapiens) (UniProt Q9BYT3); settings: Compound concentration 1000.0 nM
[26] = target: Serine/threonine-protein kinase PLK3 (Homo sapiens) (UniProt Q9H4B4); settings: Compound concentration 1000.0 nM
[27] = target: Testis-specific serine/threonine-protein kinase 1 (Homo sapiens) (UniProt Q9BXA7); settings: Compound concentration 1000.0 nM
Sequence of Testis-specific serine/threonine-protein kinase 1 (Homo sapiens) (Q9BXA7 whole entry): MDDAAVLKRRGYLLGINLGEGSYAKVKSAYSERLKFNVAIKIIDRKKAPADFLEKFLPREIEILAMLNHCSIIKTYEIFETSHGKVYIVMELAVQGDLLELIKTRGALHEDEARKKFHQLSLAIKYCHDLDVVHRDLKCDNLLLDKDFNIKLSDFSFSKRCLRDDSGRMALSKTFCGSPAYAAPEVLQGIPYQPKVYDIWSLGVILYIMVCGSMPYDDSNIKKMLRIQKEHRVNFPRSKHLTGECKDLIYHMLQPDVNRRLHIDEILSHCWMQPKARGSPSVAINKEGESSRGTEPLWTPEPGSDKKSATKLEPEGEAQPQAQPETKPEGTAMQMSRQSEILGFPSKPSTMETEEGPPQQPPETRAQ

[28] = target: Serine/threonine-protein kinase PRP4 homolog (Homo sapiens) (UniProt Q13523); settings: Compound concentration 1000.0 nM
[29] = target: Serine/threonine-protein kinase Nek3 (Homo sapiens) (UniProt P51956); settings: Compound concentration 1000.0 nM
[30] = test system: Mast/stem cell growth factor receptor Kit (Homo sapiens), P10721 [V559D,V654A]; settings: Compound concentration 1000.0 nM
[31] = target: Cyclin-dependent kinase 4 (Homo sapiens) (UniProt P11802); settings: Compound concentration 1000.0 nM; remark: listed apart in the source
[32] = target: Mitogen-activated protein kinase kinase kinase 4 (Homo sapiens) (UniProt Q9Y6R4); settings: Compound concentration 1000.0 nM
[33] = target: Serine/threonine-protein kinase Sgk3 (Homo sapiens) (UniProt Q96BR1); settings: Compound concentration 1000.0 nM
Sequence of Serine/threonine-protein kinase Sgk3 (Homo sapiens) (Q96BR1 whole entry): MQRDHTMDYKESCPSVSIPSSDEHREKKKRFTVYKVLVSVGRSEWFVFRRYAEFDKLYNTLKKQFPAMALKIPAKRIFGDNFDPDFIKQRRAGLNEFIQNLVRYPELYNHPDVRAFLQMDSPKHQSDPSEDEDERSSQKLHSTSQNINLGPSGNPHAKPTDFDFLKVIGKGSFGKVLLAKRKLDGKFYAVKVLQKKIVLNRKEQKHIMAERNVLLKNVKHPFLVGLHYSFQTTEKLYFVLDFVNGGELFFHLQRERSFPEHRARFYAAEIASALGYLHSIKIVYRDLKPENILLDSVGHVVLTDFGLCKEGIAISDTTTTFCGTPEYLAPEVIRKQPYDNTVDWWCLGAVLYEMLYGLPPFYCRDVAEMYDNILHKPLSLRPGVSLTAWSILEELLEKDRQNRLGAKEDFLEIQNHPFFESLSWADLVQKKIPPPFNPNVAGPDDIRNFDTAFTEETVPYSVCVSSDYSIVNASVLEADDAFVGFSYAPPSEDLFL

[34] = target: Alpha-1B adrenergic receptor (Homo sapiens) (UniProt P35368); settings: Compound concentration 10.0 uM
Sequence of Alpha-1B adrenergic receptor (Homo sapiens) (P35368 whole entry): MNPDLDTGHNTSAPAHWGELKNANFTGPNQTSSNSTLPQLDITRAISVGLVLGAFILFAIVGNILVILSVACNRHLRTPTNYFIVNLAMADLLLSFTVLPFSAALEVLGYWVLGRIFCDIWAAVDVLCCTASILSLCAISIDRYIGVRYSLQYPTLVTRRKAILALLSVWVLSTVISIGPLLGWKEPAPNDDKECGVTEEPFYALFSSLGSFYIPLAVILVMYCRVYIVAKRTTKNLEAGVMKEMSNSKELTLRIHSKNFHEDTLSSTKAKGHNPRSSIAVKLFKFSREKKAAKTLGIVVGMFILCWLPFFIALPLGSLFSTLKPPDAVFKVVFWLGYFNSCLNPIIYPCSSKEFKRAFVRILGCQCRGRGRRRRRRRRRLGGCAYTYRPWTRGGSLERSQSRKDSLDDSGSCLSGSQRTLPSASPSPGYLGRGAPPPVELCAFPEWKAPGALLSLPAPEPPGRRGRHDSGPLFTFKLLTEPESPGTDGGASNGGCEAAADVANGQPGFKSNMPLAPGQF

[35] = target: Glycogen synthase kinase-3 alpha (Homo sapiens) (UniProt P49840); settings: Compound concentration 1000.0 nM
[36] = target: Phosphatidylinositol 3-kinase catalytic subunit type 3 (Homo sapiens) (UniProt Q8NEB9); settings: Compound concentration 1000.0 nM
Sequence of Phosphatidylinositol 3-kinase catalytic subunit type 3 (Homo sapiens) (Q8NEB9 whole entry): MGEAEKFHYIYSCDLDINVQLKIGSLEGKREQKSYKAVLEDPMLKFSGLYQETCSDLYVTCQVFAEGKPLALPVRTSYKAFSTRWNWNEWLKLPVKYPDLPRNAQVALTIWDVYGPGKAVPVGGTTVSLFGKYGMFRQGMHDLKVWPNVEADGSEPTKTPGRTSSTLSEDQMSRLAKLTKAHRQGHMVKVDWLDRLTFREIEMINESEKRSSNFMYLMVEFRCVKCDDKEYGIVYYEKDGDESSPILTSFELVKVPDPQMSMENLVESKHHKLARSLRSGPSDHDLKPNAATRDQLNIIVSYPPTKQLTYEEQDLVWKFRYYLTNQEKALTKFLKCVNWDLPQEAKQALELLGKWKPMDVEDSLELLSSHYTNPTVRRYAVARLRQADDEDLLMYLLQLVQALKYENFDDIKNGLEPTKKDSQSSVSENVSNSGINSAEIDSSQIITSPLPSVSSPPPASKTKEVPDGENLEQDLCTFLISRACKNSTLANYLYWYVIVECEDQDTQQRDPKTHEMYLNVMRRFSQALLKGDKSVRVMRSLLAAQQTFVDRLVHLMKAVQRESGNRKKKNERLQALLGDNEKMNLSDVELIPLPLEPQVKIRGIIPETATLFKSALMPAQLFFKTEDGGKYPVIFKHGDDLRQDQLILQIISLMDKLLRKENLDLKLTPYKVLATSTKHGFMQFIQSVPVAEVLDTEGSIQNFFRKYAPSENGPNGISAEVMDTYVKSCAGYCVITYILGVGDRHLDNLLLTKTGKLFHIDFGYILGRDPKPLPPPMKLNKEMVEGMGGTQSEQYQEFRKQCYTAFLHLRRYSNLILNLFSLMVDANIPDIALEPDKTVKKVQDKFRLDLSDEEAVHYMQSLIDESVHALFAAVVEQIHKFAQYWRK

[37] = target: Mitogen-activated protein kinase kinase kinase 20 (Homo sapiens) (UniProt Q9NYL2); settings: Compound concentration 1000.0 nM
[38] = target: Serine/threonine-protein kinase PLK1 (Homo sapiens) (UniProt P53350); settings: Compound concentration 1000.0 nM
[39] = test system: Phosphatidylinositol 4,5-bisphosphate 3-kinase catalytic subunit alpha isoform (Homo sapiens), P42336 [E545A]; settings: Compound concentration 1000.0 nM
[40] = target: Alpha-2B adrenergic receptor (Homo sapiens) (UniProt P18089); settings: Compound concentration 10.0 uM
[41] = target: Alpha-2C adrenergic receptor (Homo sapiens) (UniProt P18825); settings: Compound concentration 10.0 uM
[42] = test system: Receptor-type tyrosine-protein kinase FLT3 (Homo sapiens), P36888 [R834Q]; settings: Compound concentration 1000.0 nM
[43] = target: Calcium/calmodulin-dependent protein kinase type 1B (Homo sapiens) (UniProt Q6P2M8); settings: Compound concentration 1000.0 nM
[44] = target: Vascular endothelial growth factor receptor 3 (Homo sapiens) (UniProt P35916); settings: Compound concentration 1000.0 nM
[45] = target: Peripheral plasma membrane protein CASK (Homo sapiens) (UniProt O14936); settings: Compound concentration 1000.0 nM

CC(=O)C1=C(C)N(c2cccc(C(F)(F)F)c2)C(=O)N[C@@H]1c1ccc(C#N)nc1 [BAY-678]
inactive: residual activity [1] 89.9% | residual activity [2] 82.9% | residual activity [3] 100% | residual activity [4] 80% | residual activity [5] 100% | residual activity [6] 94.8% | residual activity [7] 100% | residual activity [8] 100% | residual activity [9] 83.8% | residual activity [10] 100% | residual activity [11] 100% | residual activity [12] 80.6% | residual activity [13] 100% | inhibition [14] 6.06% | residual activity [15] 90% | residual activity [16] 80.8% | inhibition [17] 14.5% | residual activity [18] 100% | inhibition [19] 10.5% | residual activity [20] 96.3% | residual activity [21] 100% | residual activity [22] 100% | residual activity [23] 91.3% | residual activity [24] 100% | residual activity [25] 91.6% | residual activity [26] 84.2% | residual activity [27] 100% | residual activity [28] 100% | residual activity [29] 72% | residual activity [30] 100% | residual activity [31] 100% | residual activity [32] 100% | residual activity [33] 100% | inhibition [34] -1.17% | residual activity [35] 95% | residual activity [36] 100% | residual activity [37] 96.9% | residual activity [38] 100% | residual activity [39] 75.6% | inhibition [40] -1.73% | inhibition [41] 20.2% | residual activity [42] 83.6% | residual activity [43] 92.4% | residual activity [44] 100% | residual activity [45] 100%
